Assay [1] deals with 5-hydroxytryptamine receptor 6 (Homo sapiens) (UniProt P50406). As to the kind of experiment: Binding affinity to human recombinant 5HT6 receptor expressed in CHO cells co-expressing pCRE-Luc gene assessed as modulation of serotonin-induced intracellular cAMP level after 4 hrs by luciferase based luminescence assay. In kind it is cell-based. A general note: Changes in cAMP serve as a functional read-out for many G protein-coupled receptors.

Assay [2] deals with Sodium-dependent serotonin transporter (Homo sapiens) (UniProt P31645). As to the kind of experiment: Inhibition of SERT at 0.5 uM.
In assay [3] the target is Sodium-dependent noradrenaline transporter (Homo sapiens) (UniProt P23975). The experiment in a line: Inhibition of NET at 0.5 uM.
In assay [4] the target is T1, 5-hydroxytryptamine receptor 2C (Homo sapiens) (UniProt P28335).
T1 sequence (whole entry): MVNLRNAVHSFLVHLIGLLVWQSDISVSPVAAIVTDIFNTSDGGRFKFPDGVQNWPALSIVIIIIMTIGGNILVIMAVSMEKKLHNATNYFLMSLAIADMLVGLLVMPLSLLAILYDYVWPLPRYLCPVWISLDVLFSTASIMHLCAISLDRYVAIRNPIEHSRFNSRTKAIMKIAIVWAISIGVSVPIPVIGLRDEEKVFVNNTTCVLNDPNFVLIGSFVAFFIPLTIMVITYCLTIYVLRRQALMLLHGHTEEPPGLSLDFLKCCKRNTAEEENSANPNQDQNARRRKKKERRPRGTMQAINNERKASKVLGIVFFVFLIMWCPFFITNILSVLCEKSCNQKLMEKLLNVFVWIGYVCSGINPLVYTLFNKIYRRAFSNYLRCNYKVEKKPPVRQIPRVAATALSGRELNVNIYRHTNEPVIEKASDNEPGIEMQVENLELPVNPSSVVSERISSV
The experiment in a line: Inhibition of 5HT2C receptor at 0.5 uM.

For assay [5], the target named is Sodium-dependent dopamine transporter (Homo sapiens) (UniProt Q01959). As to the kind of experiment: Inhibition of DAT at 0.5 uM.
The target in assay [6] is 5-hydroxytryptamine receptor 4 (Homo sapiens) (UniProt Q13639). The experiment in a line: Binding affinity to human recombinant 5HT4 receptor expressed in CHO cells co-expressing pCRE-Luc gene assessed as modulation of serotonin-induced intracellular cAMP level at 0.5 uM after 5 hrs by luciferase based luminescence assay. Format: cell-based.
Assay [7] has as its target T2, Alpha-1B adrenergic receptor (Homo sapiens) (UniProt P35368).
T2 sequence (whole entry): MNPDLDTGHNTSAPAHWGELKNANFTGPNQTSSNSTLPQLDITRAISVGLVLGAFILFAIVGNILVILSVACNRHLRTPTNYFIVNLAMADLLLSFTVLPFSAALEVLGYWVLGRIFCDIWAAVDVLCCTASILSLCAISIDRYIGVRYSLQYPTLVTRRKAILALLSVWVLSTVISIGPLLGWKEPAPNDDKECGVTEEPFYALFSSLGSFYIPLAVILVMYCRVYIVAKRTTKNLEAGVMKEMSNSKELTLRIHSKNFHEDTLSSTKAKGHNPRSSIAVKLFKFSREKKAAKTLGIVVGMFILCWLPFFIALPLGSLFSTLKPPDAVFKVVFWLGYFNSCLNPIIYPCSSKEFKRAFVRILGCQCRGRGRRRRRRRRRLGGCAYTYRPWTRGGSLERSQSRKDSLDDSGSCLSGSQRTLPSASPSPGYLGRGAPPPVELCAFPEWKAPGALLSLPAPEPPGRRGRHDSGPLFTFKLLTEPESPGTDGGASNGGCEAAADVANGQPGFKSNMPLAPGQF
As to the kind of experiment: Inhibition of adrenergic alpha1b receptor at 0.5 uM.

Assay [8] deals with 5-hydroxytryptamine receptor 2A (Homo sapiens) (UniProt P28223). As to the kind of experiment: Inhibition of 5HT2A receptor at 0.5 uM.
The target of assay [9] is D(2) dopamine receptor (Homo sapiens) (UniProt P14416). The experiment in a line: Inhibition of dopamine D2 receptor at 0.5 uM.
The target in assay [10] is 5-hydroxytryptamine receptor 7 (Rattus norvegicus) (UniProt P32305). The experiment in a line: Binding affinity to rat 5HT7 receptor expressed in CHO cells co-expressing pCRE-Luc gene assessed as modulation of serotonin-induced intracellular cAMP level at 0.5 uM after 5 hrs by luciferase based luminescence assay. In kind it is cell-based.
Assay [11] deals with Histamine H1 receptor (Homo sapiens) (UniProt P35367). The experiment in a line: Inhibition of histamine H1 receptor at 0.5 uM.
For assay [12], the target named is T3, Muscarinic acetylcholine receptor M1 (Homo sapiens) (UniProt P11229).
T3 sequence (whole entry): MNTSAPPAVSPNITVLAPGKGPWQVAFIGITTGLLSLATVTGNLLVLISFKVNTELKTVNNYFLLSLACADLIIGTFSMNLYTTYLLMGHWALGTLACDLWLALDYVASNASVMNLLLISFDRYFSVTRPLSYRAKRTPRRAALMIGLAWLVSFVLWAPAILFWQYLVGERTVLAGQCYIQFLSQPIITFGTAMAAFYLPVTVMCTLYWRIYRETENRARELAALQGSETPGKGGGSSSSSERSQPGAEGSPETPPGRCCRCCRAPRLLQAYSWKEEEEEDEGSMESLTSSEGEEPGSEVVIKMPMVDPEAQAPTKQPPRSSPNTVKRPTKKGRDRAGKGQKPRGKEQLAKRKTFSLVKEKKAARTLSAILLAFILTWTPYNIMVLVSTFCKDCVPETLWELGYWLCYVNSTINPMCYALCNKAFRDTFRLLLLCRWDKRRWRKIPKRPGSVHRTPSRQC
As to the kind of experiment: Binding affinity to human muscarinic M1 receptor expressed in CHO cells co-expressing pCRE-Luc gene assessed as modulation of acetylcholine-induced intracellular cAMP level at 0.5 uM after 5 hrs by luciferase based luminescence assay. In kind it is cell-based.

Kb and inhibition data for 41 compounds are collected here from ChEMBL document CHEMBL1806380, “Rigidized 1-aryl sulfonyl tryptamines: synthesis and pharmacological evaluation as 5-HT6 receptor ligands” (Bioorg Med Chem Lett, 2011).

SMILES strings stand for the structures. Where only a bound is given, the exact number is not on record here.

5-hydroxytryptamine receptor 4 (Homo sapiens), sequence (Q13639 whole entry): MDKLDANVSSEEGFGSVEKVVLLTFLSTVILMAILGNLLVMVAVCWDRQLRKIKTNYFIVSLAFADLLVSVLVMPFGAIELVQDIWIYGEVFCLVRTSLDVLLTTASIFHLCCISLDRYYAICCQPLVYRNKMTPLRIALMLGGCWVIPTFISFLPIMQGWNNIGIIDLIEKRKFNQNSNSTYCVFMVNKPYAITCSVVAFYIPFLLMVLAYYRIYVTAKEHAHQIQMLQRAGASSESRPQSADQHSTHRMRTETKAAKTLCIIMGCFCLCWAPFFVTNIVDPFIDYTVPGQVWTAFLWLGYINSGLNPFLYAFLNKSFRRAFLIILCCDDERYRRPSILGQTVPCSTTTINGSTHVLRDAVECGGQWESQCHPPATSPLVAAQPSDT
5-hydroxytryptamine receptor 2A (Homo sapiens), sequence (P28223 whole entry): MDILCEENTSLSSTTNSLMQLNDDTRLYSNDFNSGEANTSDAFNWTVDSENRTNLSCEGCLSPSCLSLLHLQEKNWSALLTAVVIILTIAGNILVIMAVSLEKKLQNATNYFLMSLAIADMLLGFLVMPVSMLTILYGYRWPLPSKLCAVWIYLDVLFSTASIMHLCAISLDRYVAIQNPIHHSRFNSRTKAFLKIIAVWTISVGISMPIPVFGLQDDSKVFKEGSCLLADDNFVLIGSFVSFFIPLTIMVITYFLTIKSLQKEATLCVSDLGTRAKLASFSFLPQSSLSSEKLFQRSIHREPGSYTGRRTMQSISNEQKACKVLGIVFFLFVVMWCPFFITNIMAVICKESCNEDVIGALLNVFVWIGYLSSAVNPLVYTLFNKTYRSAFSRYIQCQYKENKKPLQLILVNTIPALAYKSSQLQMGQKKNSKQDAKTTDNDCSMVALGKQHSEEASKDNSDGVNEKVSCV
Sodium-dependent dopamine transporter (Homo sapiens), sequence (Q01959 whole entry): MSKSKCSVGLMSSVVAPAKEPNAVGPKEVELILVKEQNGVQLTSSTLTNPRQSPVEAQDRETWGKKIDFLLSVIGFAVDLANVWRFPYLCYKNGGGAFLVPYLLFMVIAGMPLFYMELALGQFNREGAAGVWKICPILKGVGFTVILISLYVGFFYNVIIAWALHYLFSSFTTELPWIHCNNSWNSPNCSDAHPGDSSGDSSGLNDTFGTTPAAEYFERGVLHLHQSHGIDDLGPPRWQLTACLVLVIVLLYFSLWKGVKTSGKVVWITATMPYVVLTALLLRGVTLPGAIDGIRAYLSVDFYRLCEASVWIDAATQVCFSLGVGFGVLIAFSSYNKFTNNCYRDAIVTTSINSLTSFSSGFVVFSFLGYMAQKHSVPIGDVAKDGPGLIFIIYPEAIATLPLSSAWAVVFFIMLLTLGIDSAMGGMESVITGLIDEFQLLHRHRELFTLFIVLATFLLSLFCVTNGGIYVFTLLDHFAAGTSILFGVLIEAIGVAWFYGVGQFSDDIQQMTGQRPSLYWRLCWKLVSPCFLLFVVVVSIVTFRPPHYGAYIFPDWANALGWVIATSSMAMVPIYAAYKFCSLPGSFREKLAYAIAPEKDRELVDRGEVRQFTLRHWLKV
5-hydroxytryptamine receptor 6 (Homo sapiens), sequence (P50406 whole entry): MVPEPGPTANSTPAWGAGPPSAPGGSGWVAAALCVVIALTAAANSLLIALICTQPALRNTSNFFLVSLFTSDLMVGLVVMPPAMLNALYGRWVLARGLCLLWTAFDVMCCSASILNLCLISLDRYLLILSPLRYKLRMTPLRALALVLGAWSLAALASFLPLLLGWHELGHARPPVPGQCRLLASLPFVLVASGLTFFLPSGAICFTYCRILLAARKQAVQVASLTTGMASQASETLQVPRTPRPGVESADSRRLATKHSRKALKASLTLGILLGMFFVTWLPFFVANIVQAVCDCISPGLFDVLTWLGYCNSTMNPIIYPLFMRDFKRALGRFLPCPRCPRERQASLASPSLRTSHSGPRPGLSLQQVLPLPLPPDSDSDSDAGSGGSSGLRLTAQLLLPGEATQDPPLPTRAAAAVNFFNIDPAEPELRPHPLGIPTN
Sodium-dependent serotonin transporter (Homo sapiens), sequence (P31645 whole entry, looked up): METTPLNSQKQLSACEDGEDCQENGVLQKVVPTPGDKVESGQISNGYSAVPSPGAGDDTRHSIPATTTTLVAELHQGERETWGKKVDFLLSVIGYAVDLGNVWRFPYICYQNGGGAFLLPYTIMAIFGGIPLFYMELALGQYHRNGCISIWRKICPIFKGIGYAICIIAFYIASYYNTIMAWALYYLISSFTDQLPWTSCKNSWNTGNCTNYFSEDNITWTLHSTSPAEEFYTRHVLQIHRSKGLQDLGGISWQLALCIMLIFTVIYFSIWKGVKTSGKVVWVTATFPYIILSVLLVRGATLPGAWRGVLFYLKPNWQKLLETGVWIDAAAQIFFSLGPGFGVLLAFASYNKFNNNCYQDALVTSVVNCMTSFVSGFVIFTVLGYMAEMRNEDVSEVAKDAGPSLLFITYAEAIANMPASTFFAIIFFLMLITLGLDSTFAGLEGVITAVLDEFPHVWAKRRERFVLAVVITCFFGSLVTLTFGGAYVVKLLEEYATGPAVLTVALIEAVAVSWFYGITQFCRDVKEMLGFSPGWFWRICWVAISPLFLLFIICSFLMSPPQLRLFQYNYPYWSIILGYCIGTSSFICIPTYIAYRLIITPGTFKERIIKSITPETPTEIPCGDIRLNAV
Histamine H1 receptor (Homo sapiens), sequence (P35367 whole entry): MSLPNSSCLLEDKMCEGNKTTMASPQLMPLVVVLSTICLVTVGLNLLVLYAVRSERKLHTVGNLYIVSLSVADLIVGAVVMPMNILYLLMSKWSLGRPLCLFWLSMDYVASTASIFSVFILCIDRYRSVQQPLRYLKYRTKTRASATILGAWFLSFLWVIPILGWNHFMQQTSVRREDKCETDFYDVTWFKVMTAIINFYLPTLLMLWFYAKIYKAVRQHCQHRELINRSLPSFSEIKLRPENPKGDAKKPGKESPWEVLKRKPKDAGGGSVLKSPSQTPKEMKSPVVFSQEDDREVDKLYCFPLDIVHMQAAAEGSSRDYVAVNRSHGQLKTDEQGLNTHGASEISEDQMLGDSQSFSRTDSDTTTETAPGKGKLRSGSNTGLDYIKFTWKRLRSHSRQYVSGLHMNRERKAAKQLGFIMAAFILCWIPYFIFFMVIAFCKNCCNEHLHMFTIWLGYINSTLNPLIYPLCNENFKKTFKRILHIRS
D(2) dopamine receptor (Homo sapiens), sequence (P14416 whole entry): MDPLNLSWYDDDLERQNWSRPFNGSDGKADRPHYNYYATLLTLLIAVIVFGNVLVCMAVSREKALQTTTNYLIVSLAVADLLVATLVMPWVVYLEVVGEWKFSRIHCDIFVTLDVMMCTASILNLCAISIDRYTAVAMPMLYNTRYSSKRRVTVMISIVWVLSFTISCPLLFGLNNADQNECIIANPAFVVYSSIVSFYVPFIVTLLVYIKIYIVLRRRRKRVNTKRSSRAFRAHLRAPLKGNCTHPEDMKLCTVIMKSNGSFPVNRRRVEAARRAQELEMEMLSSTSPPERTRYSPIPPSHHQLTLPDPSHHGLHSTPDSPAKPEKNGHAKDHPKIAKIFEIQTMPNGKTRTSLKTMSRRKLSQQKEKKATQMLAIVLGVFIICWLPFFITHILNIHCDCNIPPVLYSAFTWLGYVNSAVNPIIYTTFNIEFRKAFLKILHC
Sodium-dependent noradrenaline transporter (Homo sapiens), sequence (P23975 whole entry): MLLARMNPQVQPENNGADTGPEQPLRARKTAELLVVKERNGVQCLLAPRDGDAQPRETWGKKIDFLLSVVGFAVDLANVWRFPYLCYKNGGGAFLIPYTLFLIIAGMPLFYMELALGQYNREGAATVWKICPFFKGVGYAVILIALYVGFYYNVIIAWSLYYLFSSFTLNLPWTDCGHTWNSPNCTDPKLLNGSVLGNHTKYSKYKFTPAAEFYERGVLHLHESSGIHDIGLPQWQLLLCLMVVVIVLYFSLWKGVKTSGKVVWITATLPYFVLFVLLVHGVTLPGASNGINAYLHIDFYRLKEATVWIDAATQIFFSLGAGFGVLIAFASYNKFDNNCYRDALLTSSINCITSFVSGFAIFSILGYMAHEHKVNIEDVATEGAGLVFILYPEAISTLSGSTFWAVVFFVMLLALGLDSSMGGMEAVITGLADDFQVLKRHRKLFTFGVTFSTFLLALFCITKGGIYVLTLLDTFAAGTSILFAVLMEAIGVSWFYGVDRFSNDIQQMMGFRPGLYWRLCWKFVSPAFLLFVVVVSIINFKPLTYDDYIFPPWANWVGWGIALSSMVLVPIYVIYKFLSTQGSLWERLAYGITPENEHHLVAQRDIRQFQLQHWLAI
5-hydroxytryptamine receptor 7 (Rattus norvegicus), sequence (P32305 whole entry): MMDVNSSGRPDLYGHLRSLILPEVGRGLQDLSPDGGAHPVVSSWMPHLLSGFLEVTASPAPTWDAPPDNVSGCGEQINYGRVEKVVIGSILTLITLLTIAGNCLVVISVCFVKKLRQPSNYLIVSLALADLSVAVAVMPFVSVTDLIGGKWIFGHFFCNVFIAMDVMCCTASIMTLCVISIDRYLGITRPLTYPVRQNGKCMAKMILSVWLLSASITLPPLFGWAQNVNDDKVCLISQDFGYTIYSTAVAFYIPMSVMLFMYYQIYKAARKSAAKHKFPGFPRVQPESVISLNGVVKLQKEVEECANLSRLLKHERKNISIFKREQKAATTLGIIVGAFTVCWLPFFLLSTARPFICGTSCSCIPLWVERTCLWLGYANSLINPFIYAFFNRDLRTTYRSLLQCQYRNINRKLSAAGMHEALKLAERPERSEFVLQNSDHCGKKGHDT

Turning to `CCN1CC(Cl)=C(c2cn(S(=O)(=O)c3cccc(Cl)c3)c3ccc(OC)cc23)C1`, in [1], the Kb worked out at 2.4 nM.
The same measure, in the same setting: with `CCOc1ccc2c(c1)c(C1=C(Cl)CN(C)C1)cn2S(=O)(=O)c1ccccc1` the figure was 1 nM; with `CC(C)Oc1ccc2c(c1)c(C1=C(Cl)CN(C)C1)cn2S(=O)(=O)c1ccc(F)cc1`, 7.27 nM.
Still for that read-out and setting: with `CCOc1ccc2c(c1)c(C1=C(Cl)CN(C)C1)cn2S(=O)(=O)c1ccccc1Br` the figure was 0.4 nM; with `CN1CCC(c2cn(S(=O)(=O)c3ccccc3Br)c3ccccc23)C1` (racemic), 0.13 nM.
As for `CCOc1ccc2c(c1)c(C1=C(Cl)CN(CC)C1)cn2S(=O)(=O)c1ccccc1Br`, the Kb in assay [1] is 0.45 nM.
For the compound `COc1ccc2c(c1)c(C1=C(Cl)CN(C)C1)cn2S(=O)(=O)c1ccc(C(C)C)cc1`, the Kb in assay [1] came out at 0.25 nM.
Turning to `COc1ccc2c(c1)c(C1=C(Cl)CN(C)C1)cn2S(=O)(=O)c1ccccc1Br`, the inhibition in [2], in [3], in [4], in assay [5], in assay [6] and in [7] was less than 50% throughout. For the same compound, the inhibition in [8], in assay [9], in assay [10], in [11] and in assay [12] was less than 50% throughout. In addition, the Kb in [1] amounted to 0.3 nM.
Regarding `CCN1CC(Cl)=C(c2cn(S(=O)(=O)c3ccc(OC)cc3)c3ccc(OC)cc23)C1`, the Kb in [1] was 14.5 nM.
Turning to `CCN1CC(Cl)=C(c2cn(S(=O)(=O)c3ccc(F)cc3)c3ccc(OC)cc23)C1`, the Kb in [1] is 8.7 nM.
Consider `CN1CCC(c2cn(S(=O)(=O)c3ccc(F)cc3)c3ccccc23)C1` (racemic), for which the Kb in assay [1] came to 1 nM.
With `COc1ccc2c(c1)c(C1CCN(C)C1)cn2S(=O)(=O)c1ccccc1` (racemic), the Kb in assay [1] was 0.89 nM.
In the case of `COc1ccc(S(=O)(=O)n2cc(C3=C(Cl)CN(C)C3)c3cc(OC)ccc32)cc1`, the inhibition in assay [2], in [3], in [4], in assay [5], in assay [6] and in assay [7] was less than 50% each time. Also, the inhibition in [8], in [9], in assay [10], in assay [11] and in assay [12] was less than 50% each time. In assay [1], the Kb was found to be 1.65 nM.
In the case of `CCN1CC(Cl)=C(c2cn(S(=O)(=O)c3ccc(F)cc3)c3ccccc23)C1`, in assay [1], the Kb was determined as 5.8 nM.
Consider `CN1CCC(c2cn(S(=O)(=O)c3ccccc3)c3ccccc23)C1` (racemic), for which the Kb in assay [1] was 1.52 nM.
Consider `COc1ccc2c(c1)c(C1=C(Cl)CN(C)C1)cn2S(=O)(=O)c1cccc(Cl)c1`, for which the Kb in assay [1] is 0.84 nM.
`COc1ccc2c(c1)c(C1CCN(C)C1)cn2S(=O)(=O)c1ccc(C(C)C)cc1` (racemic): the Kb in [1] is 0.1 nM.
The same measure, in the same setting: the same measure for `CCN1CC(Cl)=C(c2cn(S(=O)(=O)c3ccc(Br)cc3)c3ccccc23)C1`: 3.9 nM.
For the compound `CN1CC(Cl)=C(c2cn(S(=O)(=O)c3ccc(Br)cc3)c3ccccc23)C1`, the inhibition in assay [2], in assay [3], in assay [4], in assay [5], in assay [6] and in assay [7] was less than 50% in each case. The inhibition in assay [8], in assay [9], in [10], in assay [11] and in [12] was less than 50% in each case. Besides, the Kb in assay [1] came out at 0.35 nM.
For the compound `COc1ccc2c(c1)c(CCN(C)C)cn2S(=O)(=O)c1ccccc1`, the Kb in assay [1] was determined as 5.8 nM.
In the case of `CCN1CC(Cl)=C(c2cn(S(=O)(=O)c3cccc(Cl)c3)c3ccccc23)C1`, the Kb in [1] worked out at 12.5 nM.
In the case of `CCOc1ccc2c(c1)c(C1=C(Cl)CN(C)C1)cn2S(=O)(=O)c1ccc(Br)cc1`, the Kb in assay [1] turned out to be 4.45 nM.
The same measure, in the same setting: with `CCN1CC(Cl)=C(c2cn(S(=O)(=O)c3ccccc3Br)c3ccc(OC)cc23)C1` the figure was 6.15 nM.
Consider `CCN1CCC(c2cn(S(=O)(=O)c3ccccc3Br)c3ccccc23)C1` (racemic), for which the Kb in [1] turned out to be 0.1 nM.
Turning to `COc1ccc2c(c1)c(C1=C(Cl)CN(C)C1)cn2S(=O)(=O)c1ccc(Br)cc1`, the Kb in [1] is 1.78 nM.
As to `CN1CC(Cl)=C(c2cn(S(=O)(=O)c3ccccc3Br)c3ccc(F)cc23)C1`, in [1], the Kb stood at 0.25 nM.
For `CCN1CC(Cl)=C(c2cn(S(=O)(=O)c3ccccc3Br)c3ccccc23)C1`, the Kb in assay [1] came out at 1.1 nM.
On to `CCN1CC(Cl)=C(c2cn(S(=O)(=O)c3ccccc3)c3ccc(OC)cc23)C1`, for which, in assay [1], the Kb is 0.7 nM.
Turning to `COc1ccc2c(c1)c(C1=C(Cl)CN(C)C1)cn2S(=O)(=O)c1cc(Cl)c(Cl)cc1Cl`, the Kb in assay [1] amounted to 18.4 nM.
As to `CCN1CC(Cl)=C(c2cn(S(=O)(=O)c3ccc(Br)cc3)c3ccc(OC)cc23)C1`, the Kb in assay [1] was determined as 4.75 nM.
Take `CCOc1ccc2c(c1)c(C1=C(Cl)CN(C)C1)cn2S(=O)(=O)c1ccc(F)cc1`: the Kb in assay [1] came out at 6.16 nM.
Consider `COc1ccc(S(=O)(=O)n2cc(C3=C(Cl)CN(C)C3)c3ccccc32)cc1`, for which, in assay [1], the Kb turned out to be 10 nM.
Still for that read-out and setting: the same measure for `CCOc1ccc2c(c1)c(C1CCN(C)C1)cn2S(=O)(=O)c1ccccc1Br` (racemic): 0.1 nM.
Still for that read-out and setting: the same measure for `CC(C)Oc1ccc2c(c1)c(C1=C(Cl)CN(C)C1)cn2S(=O)(=O)c1ccccc1`: 0.7 nM; for `CC(C)Oc1ccc2c(c1)c(C1CCN(C)C1)cn2S(=O)(=O)c1ccccc1Br` (racemic): 4.15 nM.
For `CN1CC(Cl)=C(c2cn(S(=O)(=O)c3ccccc3)c3ccc(F)cc23)C1`, the Kb in [1] was determined as 0.1 nM.
Turning to `CN1CC(Cl)=C(c2cn(S(=O)(=O)c3ccc(F)cc3)c3ccccc23)C1`, the inhibition in assay [2], in assay [3], in [4], in assay [5], in [6] and in assay [7] was less than 50% in each case. Also, the inhibition in assay [8], in [9], in assay [10], in assay [11] and in assay [12] was less than 50% each time. Also, the Kb in assay [1] was 0.6 nM.
`COc1ccc2c(c1)c(C1CCN(C)C1)cn2S(=O)(=O)c1ccccc1Br` (racemic): in assay [1], the Kb worked out at 0.13 nM.
Turning to `CCN1CCC(c2cn(S(=O)(=O)c3ccccc3Br)c3ccc(OC)cc23)C1` (racemic), the Kb in [1] amounted to 1.3 nM.
For `CCN1CC(Cl)=C(c2cn(S(=O)(=O)c3cccc(Cl)c3)c3ccc(F)cc23)C1`, the Kb in assay [1] is 6.15 nM.
Still for that read-out and setting: with `COc1ccc2c(c1)c(C1=C(Cl)CN(C)C1)cn2S(=O)(=O)c1ccc(F)cc1` the figure was 0.63 nM.

What is called inhibition is the percentage by which the read-out fell short of the control.
